Data as given in US20230322670A1, “DIPYRROLIDINE-1-ONE COMPOUNDS AND THEIR PREPARATION METHOD” (Poseidon Pharmaceutical Co., Ltd., priority 2020, published 2023).

Tested on: not listed separately
Experiment: Antitumor activity test, sulfonyl rhodamine B (SRB) method
Type: cell-based, human
Details: compound concentration 10^−5 M, A-549 cells cultured 72 hours, OD560
Experimental: (§1) Antitumor activity test: Sulfonyl rhodamine B (SRB) method was used to determine the in vitro anti-tumor activity of A-549 […] cancer cells. A-549 human […] cancer cells in logarithmic growth were inoculated into a 96 well microculture plate with the amount of 90 μL/well. 24 hours later, the solutions respectively containing the compounds 1a, 1b, 1c, 1d, 1e, 1f, 1g, 1h, and 1i of the disclosure were added to the wells with each 10 μL/well, and three wells for each concentration. A cell-free zero adjustment hole was also provided. The concentrations of the compounds 1a, 1b, 1c, 1d, 1e, 1f, 1g, 1h, and 1i in corresponding solution were all 10^−5 M. The tumor cells were cultured at 37° C. under 5% CO2 for 72 hours. The culture medium was discarded, and 100 μL/well of 10% TCA was added to the cells for fixing at 4° C. for 1 hour. The cells were washed three times with distilled water, and dried naturally. 4 mg/mL SRB (Sigma) staining solution of 100 μL/well was added for staining at room temperature for 15 minutes, washed three times with 1% acetic acid aqueous solution, and dried naturally. 100 μL/well of 10 mM Tris base aqueous solution was further added. Then, the optical density (OD560) value was measured using an enzyme-linked immunosorbent assay at a wavelength of 560 nm. The inhibition rate of the tested compounds on tumor cell growth was calculated according to the formula: (control group OD value-administration group OD value)/control group OD value×100%.

Row | Compound | Inhibitory rates on tumor cell growth (%)
1 | 3,7-dimethyl-8-(2-ethoxycarbonylethyl) -2-(2-p-toluenesulfoethyl)-dipyrrolidene-1-one [Compound 1g] | 35.6
2 | 9-tert butoxycarbonyl-2,7-dimethyl-8-(2-methoxycarbonylethyl)-3-(2-p-toluenesulfoethyl)-dipyrrolidene-1-one [Compound 1a] | 72.3
3 | 9-tert-butyloxycarbonyl-3,7-dimethyl-8-(2-methoxycarbonyl ethyl)-2-(2-p-tolylene sulfonyl group ethyl)-dipyrrolomethen-1-one [Compound 1b] | 57.0
4 | COC(=O)CCc1c(C(=O)OC(C)(C)C)[nH]c(C=C2NC(=O)C(CCS(=O)(=O)c3ccc(C)cc3)=C2C)c1C [Compound 1c, 9-tert-butyloxycarbonyl-3,7-dimethyl-8-(2-methoxycarbonylethyl)-2-(2-nenenebap-toluenesulfonylethyl)-dipyrrolomethen-1-one] | 34.4
5 | 3,7,9-trimethyl-8-(2-methoxycarbonyl ethyl)-2-(2-p-tolylene sulfonyl group ethyl)-dipyrrolidone [Compound 1h] | 11.7
6 | 3,7,9-trimethyl-8-(2-carboxyethyl) -2-(2-p-toluenesulfoethyl)-Dipyrrolidene-1-one [Compound 1f] | 23.5
7 | COC(=O)CCc1c(C)[nH]c(C=C2NC(=O)C(CCS(=O)(=O)c3ccc(C)cc3)=C2C)c1C [Compound 1i, 3,7,9-trimethyl-8-(2-methoxycarbonylethyl)-2-(2-nenenebap-toluenesulfonylethyl)-dipyrrolomethen-1-one] | 28.4

Tested on: A-549 human breast cancer cells
Experiment: as above
Type: cell-based
Details: Homo sapiens, A549, compound concentration 10^−5 M, A-549 cells cultured 72 hours, OD560, read-out: Inhibitory rates on tumor cell growth (%)
Experimental: as §1

Row | Compound | inhibition at 10 µM [%]
8 | COC(=O)CCc1c(C)[nH]c(/C=C2\NC(=O)C(CC[S+]([O-])c3ccc(C)cc3)=C2C)c1C (stereo not drawn) [Compound 1e, 3,7,9-trimethyl-8-(2-methoxycarbonylethyl)-2-(2-p-tolylenesulfonylgroupethyl)-dipyrrolidone] | 63.4
9 | COC(=O)CCc1c(C)[nH]c(/C=C2\NC(=O)C(CCSc3ccc(C)cc3)=C2C)c1C [Compound 1d, 3,7,9-trimethyl-8-(2-methoxycarbonylethyl) -2-(2-p-toluenesulfoethyl)-dipyrrolidene-1-one] | 37.8
